# Source: patent publication US11371055B2, “Herbicide resistance genes” (CORTEVA AGRISCIENCE LLC, priority 2005, dated 2022)
# Key:
# [1] = system: Homozygous AAD-1 (v3) gene T4 plants (Arabidopsis); assay: T1 Arabidopsis postemergence herbicide dose response, AAD-1 comparison; type: in vivo, Arabidopsis thaliana
# From the text: T1 plants were then randomly assigned to various rates of 2,4-D. For Arabidopsis, 50 g ae/ha 2,4-D is an effective dose to distinguish sensitive plants from ones with meaningful levels of resistance. Elevated rates were also applied to determine relative levels of resistance (50, 200, 800, or 3200 g ac/ha). Tables 10 and 11 show comparisons drawn to an aryloxyalkanoate herbicide resistance gene (AAD-1 (v3)) previously described in PCT/US2005/014737.
# All auxin herbicide applications were made using the DeVilbiss sprayer as described above to apply 703 L/ha spray volume (0.4 ml solution/3-inch pot) or applied by track sprayer in a 187 L/ha spray volume. 2,4-D used was either technical grade (Sigma, St. Louis, Mo.) dissolved in DMSO and diluted in water (<1% DMSO final concentration) or the commercial dimethylamine salt formulation (456 g ac/L, NuFarm, St Joseph, Mo.). Dichlorprop used was commercial grade formulated as potassium salt of R-dichlorprop (600 g ai/L, AH Marks). As herbicide rates increased beyond 800 g ae/ha, the pH of the spray solution became exceedingly acidic, burning the leaves of young, tender Arabidopsis plants and complicating evaluation of the primary effects of the herbicides. It became standard practice to apply these high rates of herbicides in 200 mM HEPES buffer, pH 7.5.
# The first Arabidopsis transformations were conducted using AAD-12 (v1) (plant optimized gene). T1 transformants were first selected from the background of untransformed seed using a glufosinate selection scheme. Over 300,000 T1 seed were screened and 316 glufosinate resistant plants were identified (PAT gene), equating to a transformation/selection frequency of 0.10% which lies in the normal range of selection frequency of constructs where PAT+Liberty are used for selection. T1 plants selected above were subsequently transplanted to individual pots and sprayed with various rates of commercial aryloxyalkanoate herbicides. Table 11 compares the response of AAD-12 (v1) and control genes to impart 2,4-D resistance to Arabidopsis T1 transformants. Response is presented in terms of % visual injury 2 WAT. […] Since each T1 is an independent transformation event, one can expect significant variation of individual T1 responses within a given rate. An arithmetic mean and standard deviation is presented for each treatment. The range in individual response is also indicated in the last column for each rate and transformation. PAT/Cry1F-transformed Arabidopsis served as an auxin-sensitive transformed control. The AAD-12 (v1) gene imparted herbicide resistance to individual T1 Arabidopsis plants. Within a given treatment, the level of plant response varied greatly and can be attributed to the fact each plant represents an independent transformation event. Of important note, at each 2,4-D rate tested, there were individuals that were unaffected while some were severely affected. […] Injury levels tend to be greater and the frequency of uninjured plants was lower at elevated rates up to 3,200 g ae/ha (or 6× field rate). Also at these high rates, the spray solution becomes highly acidic unless buffered. Arabidopsis grown mostly in the growth chamber has a very thin cuticle and severe burning effects can complicate testing at these elevated rates. Nonetheless, many individuals have survived 3.200 g ac/ha 2,4-D with little or no injury.
# [2] = system: cotton cotyledonary segments; type: cell-based
# Protocol: A dose response study was initiated to test multiple auxin alternatives as a substitute for the use of 2,4-D as a growth regulator in cotton. The alternative auxin tested were 2,4-dichlorprop, dicamba, and picloram. These compounds were tested at 0.2, 2.0, and 20.0 uM concentrations respectively. 2,4-D was used as the control treatment at 0.02 uM concentration. The medium used is the base medium for cotton callus induction (Example 12). Beyond the initial phase of culture, auxin is removed from the medium to prod the tissue toward the regeneration process.
# [3] = system: Segregating T2 AAD-12 (v1) plants (pDAB724.01.1.20); assay: Foliar-applied auxinic herbicides on T2 Arabidopsis; type: in vivo, Arabidopsis thaliana; details: Pyridyloxyacetic auxins
# Protocol: The ability of AAD-12 (v1) to provide resistance to other aryloxyalkanoate auxin herbicides in transgenic Arabidopsis was determined by foliar application of various substrates. T2 generation Arabidopsis seed was stratified, and sown into selection trays much like that of Arabidopsis (Example 6.4). A transformed-control line containing PAT and the insect resistance gene Cry1F was planted in a similar manner. Seedlings were transferred to individual 3-inch pots in the greenhouse. All plants were sprayed with the use of a track sprayer set at 187 L/ha. The plants were sprayed with a range of pyridyloxyacetate herbicides: 280-2240 g ae/ha triclopyr (Garlon 3A, Dow AgroSciences) and 280-2240 g ae/ha fluroxypyr (Starane, Dow AgroSciences); and the 2,4-D metabolite resulting from AAD-12 activity, 2,4-dichlorophenol (DCP, Sigma) (at a molar equivalent to 280-2240 g ac/ha of 2,4-D, technical grade DCP was used). All applications were formulated in water. Each treatment was replicated 3-4 times. Plants were evaluated at 3 and 14 days after treatment.
# [4] = 50 g ae/ha 2,4-D postemergence, 2 WAT
# [5] = 200 g ae/ha 2,4-D postemergence, 2 WAT
# [6] = 800 g ae/ha 2,4-D postemergence, 2 WAT
# [7] = 3200 g ae/ha 2,4-D postemergence, 2 WAT
# [8] = 50 g ae/ha R-dichlorprop postemergence
# [9] = 200 g ae/ha R-dichlorprop postemergence
# [10] = 800 g ae/ha R-dichlorprop postemergence
# [11] = 3200 g ae/ha R-dichlorprop postemergence
smiles,measurement,setting,value
"O=C(O)COc1ccc(Cl)cc1Cl [2,4-D, 2,4-dichlorophenoxyacetic acid]",% Injury 20-40% (number of individuals),[1]; [4],0
same,% Injury <20% (number of individuals),[1]; [4],10
same,% Injury >40% (number of individuals),[1]; [4],0
same,% Injury Ave,[1]; [4],0%
same,% Injury 20-40% (number of individuals),[1]; [5],0
same,% Injury <20% (number of individuals),[1]; [5],10
same,% Injury >40% (number of individuals),[1]; [5],0
same,% Injury Ave,[1]; [5],0%
same,% Injury 20-40% (number of individuals),[1]; [6],0
same,% Injury <20% (number of individuals),[1]; [6],10
same,% Injury >40% (number of individuals),[1]; [6],0
same,% Injury Ave,[1]; [6],0%
same,% Injury 20-40% (number of individuals),[1]; [7],1
same,% Injury <20% (number of individuals),[1]; [7],9
same,% Injury >40% (number of individuals),[1]; [7],0
same,% Injury Ave,[1]; [7],2%
same,effect on cotton callus generation and growth,[2]; highest concentration (20 uM),inhibitory
"C[C@@H](Oc1ccc(Cl)cc1Cl)C(=O)O [(R)-dichlorprop, R-2,4-dichlorophenoxypropionic acid]",% Injury 20-40% (number of individuals),[1]; [8],0
same,% Injury <20% (number of individuals),[1]; [8],10
same,% Injury >40% (number of individuals),[1]; [8],0
same,% Injury Ave,[1]; [8],0%
same,% Injury 20-40% (number of individuals),[1]; [9],0
same,% Injury <20% (number of individuals),[1]; [9],10
same,% Injury >40% (number of individuals),[1]; [9],0
same,% Injury Ave,[1]; [9],0%
same,% Injury 20-40% (number of individuals),[1]; [10],0
same,% Injury <20% (number of individuals),[1]; [10],10
same,% Injury >40% (number of individuals),[1]; [10],0
same,% Injury Ave,[1]; [10],0%
same,% Injury 20-40% (number of individuals),[1]; [11],0
same,% Injury <20% (number of individuals),[1]; [11],10
same,% Injury >40% (number of individuals),[1]; [11],0
same,% Injury Ave,[1]; [11],0%
same,callus induction of cotyledonary segments,[2]; concentrations tested up to 20 uM,not effective
Nc1c(Cl)c(F)nc(OCC(=O)O)c1Cl [Fluroxypyr],Ave % Injury 14DAT,[3]; 280 g ae/ha foliar,0%
same,Ave % Injury 14DAT,[3]; 560 g ae/ha foliar,2%
same,Ave % Injury 14DAT,[3]; 1120 g ae/ha foliar,3%
same,Ave % Injury 14DAT,[3]; 2240 g ae/ha foliar,5%
O=C(O)COc1nc(Cl)c(Cl)cc1Cl [triclopyr],Ave % Injury 14DAT,[3]; 280 g ae/ha foliar,0%
same,Ave % Injury 14DAT,[3]; 560 g ae/ha foliar,3%
same,Ave % Injury 14DAT,[3]; 1120 g ae/ha foliar,0%
same,Ave % Injury 14DAT,[3]; 2240 g ae/ha foliar,3%
